These results are taken from US8518935B2, “Amorphous besifloxacin solid” (Bausch & Lomb Incorporated, priority 2009, dated 2013).

The data set in a line: Solubility in water at room temperature and pH of about 7. The format is physicochemical.

≈ marks a conversion by molar mass, not a printed value.

For orientation: solubility means how much of the substance goes into solution per volume. The compound `N[C@@H]1CCCCN(c2c(F)cc3c(=O)c(C(=O)O)cn(C4CC4)c3c2Cl)C1` [amorphous besifloxacin free base, (R)-(+)-7-(3-amino-2,3,4,5,6,7-hexahydro-1H-azepin-1-yl)-1-cyclopropyl-8-chloro-6-fluoro-1,4-dihydro-4-oxoquinoline-3-carboxylic acid] displayed a solubility (pH 7, room temperature) of 0.516 mg/mL (≈ 1310 µM). Turning to `N[C@@H]1CCCCN(c2c(F)cc3c(=O)c(C(=O)O)cn(C4CC4)c3c2Cl)C1` [besifloxacin free base starting material, (R)-(+)-7-(3-amino-2,3,4,5,6,7-hexahydro-1H-azepin-1-yl)-1-cyclopropyl-8-chloro-6-fluoro-1,4-dihydro-4-oxoquinoline-3-carboxylic acid], the solubility in water (room temperature) came to 0.0733 mg/mL (≈ 186 µM).
